Columns and labels:
[1] = test system: Pck1 gene expression in liver; assay: qPCR of gluconeogenic genes in liver of treated mice; assay type: in vivo; settings: livers from fasted treated mice
Method: All mice were purchased from Jackson laboratories and housed under a 12 h light/12 h dark cycle at 22° C. Before handling, mice were allowed to acclimate for at least 1 week in our animal facility. For in vivo studies with DIO mice, males 6-8 weeks old were fed HFD for the indicated time. For drug administration, SR-18292 was re-suspended in a 10% DMSO/10% Tween80/80% PBS solution at a final concentration of 6-12 mg/ml. Metformin was re-suspended in the same solution at a 20 mg/ml concentration. SR-18292 was injected via I.P. for 3 days between 4-5 pm and food was removed on day 3 at 5 pm. […] Metformin was administered via oral gavage. […] Insulin tolerance test was performed following the same dosing protocol, but mice were fasted for 4 hours after the forth injection before performing the test. Insulin was injected via I.P. (0.5 U/Kg) and blood glucose was measured every 20 minutes. Glycemia was measured by tail bleed using a glucometer (OneTouch). […] Total RNA was extracted from cells or pulverized liver using TRIzol reagent (Ambion, Life Technologies), followed by cDNA preparation from 2 μg of total RNA with a High-Capacity cDNA Reverse Transcription Kit (Applied Biosystems). cDNA products were quantified by real-time PCR using Power SYBR Green PCR Master Mix (Applied Biosystems) on a CFX384 Real-Time PCR System (Bio-Rad). […]

[2] = test system: HFD fed mice; assay: Chronic 14 day treatment of HFD mice; assay type: in vivo
Method: FIG. 57 is a plot monitoring body weight over a period of days. Mice fed HFD for 6 weeks were injected daily with SR-18292 for a total of 14 days and body weight was monitored during the treatment.
FIG. 58 is a series of bar graphs monitoring blood glucose. Mice were fasted at day 3 and 13 and fasting blood glucose was measured at day 4 and 14. Fed blood glucose was also measured at day 10. n=10, *P<0.05.
In addition, liver toxicity, as measured by serum levels of alanine transaminase (ALT), aspartate aminotransferase (AST), lactate dehydrogenase (LDH) and bilirubin, was not observed in mice treated with SR-18292 (Table 6). […] To assess the contribution of PGC-1α in mediating the in vivo effects of SR-18292, hepatic PGC-1α in Lep^ob/ob mice was depleted using shRNA and observed a significant reduction in basal blood glucose concentrations compared to control. […] To fully assess the effects of SR-18292 on whole body glucose homeostasis and insulin resistance, a glucose tolerance test (GTT) and insulin tolerance test (ITT) were performed following the same protocol used to determine fasting blood glucose. […] As expected, insulin levels after GTT were lower in the treated group (FIG. 51). […] To test if SR-18292 chronic treatment will cause similar anti-diabetic effects, mice were treated for a period of 14 days.

In the case of Cc1ccc(CN(CC(O)COc2cccc3[nH]ccc23)C(C)(C)C)cc1 (centres unmarked) [SR-18292, 1-((1H-indol-4-yl)oxy)-3-(tert-butyl(4-methylbenzyl)amino)propan-2-ol], the “gluconeogenic gene expression (Pck1) in liver” value [1] is reported as “inhibited”, the “ability to reduce blood glucose” value ([2]; 14 days daily treatment) is reported as “sustained” and the body weight ([2]; 14 days daily treatment) is reported as “without resulting in changes in body weight”. For the same compound, the “toxicity by serum ALT and AST, H&E staining of liver, proinflammatory genes” value ([2]; 14 days treatment) was “did not cause any signs of toxicity”, the “H&E staining of liver slices assessed by pathologist” value ([2]; after 14 days, n=10) was “no sign of toxicity was observed” and the “liver triglycerides and cholesterol levels” value ([2]; after 14 days, n=10) was “not altered”. For the same compound, the “serum ALT and AST levels” value ([2]; after 14 days, n=10) was “not altered” and the “serum lactate, β-hydroxybutyrate and cholesterol levels” value ([2]; after 14 days, n=10) was “not altered”.
